Laboratory results from the supplement of paper PMC10307832.

How the values were obtained:
Assay in all cases: relative viability (nuclei count vs DMSO), 5 days (fraction); higher = more cells survive
[1] = compound: Cc1ccc2nc(NCCN)c3ncc(C)n3c2c1 + COc1cc2c(Oc3ccc(NC(=O)C4(C(=O)Nc5ccc(F)cc5)CC4)cc3F)ccnc2cc1OCCCN1CCOCC1 [Foretinib] (partner 0.25 µM)
In short: (§1)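 Values are medians from duplicate plates. Each reflects relative viability, defined as the nuclei count of treated wells over that of vehicle wells. Lung cancer cell lines in 1536-well plates were pin-tool dosed one day after seeding with one drug alone or with a fixed anchor-drug dose plus five library-drug doses (not always all listed) in √10 steps, then fixed, stained and imaged at 4× after 5 days.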

Salubrinal + Crizotinib = compound: O=C(/C=C/c1ccccc1)NC(NC(=S)Nc1cccc2cccnc12)C(Cl)(Cl)Cl [Salubrinal] + C[C@@H](Oc1cc(-c2cnn(C3CCNCC3)c2)cnc1N)c1c(Cl)ccc(F)c1Cl [Crizotinib] (partner 1 µM)
In short: as §1

[2] = compound: Cc1ccc2nc(NCCN)c3ncc(C)n3c2c1 + Cc1cc(Nc2cc(N3CCN(C)CC3)nc(Sc3ccc(NC(=O)C4CC4)cc3)n2)n[nH]1 [Tozasertib] (partner 0.1 µM)
In short: as §1

Salubrinal + Bortezomib = compound: O=C(/C=C/c1ccccc1)NC(NC(=S)Nc1cccc2cccnc12)C(Cl)(Cl)Cl [Salubrinal] + CC(C)C[C@H](NC(=O)[C@H](Cc1ccccc1)NC(=O)c1cnccn1)B(O)O [Bortezomib] (partner 0.002 µM)
In short: as §1

What does the source list for UMC-11?
relative viability ([1]; first compound 0.04 µM): 1.02; relative viability ([1]; first compound 0.1265 µM): 0.999; relative viability ([1]; first compound 0.4 µM): 1.02; relative viability ([1]; first compound 1.265 µM): 1.01; relative viability ([1]; first compound 4 µM): 0.945; relative viability (Salubrinal + Crizotinib; first compound 0.08 µM): 0.577; relative viability (Salubrinal + Crizotinib; first compound 0.253 µM): 0.54; relative viability (Salubrinal + Crizotinib; first compound 0.8 µM): 0.586; relative viability (Salubrinal + Crizotinib; first compound 2.53 µM): 0.578; relative viability (Salubrinal + Crizotinib; first compound 8 µM): 0.599; relative viability ([2]; first compound 0.04 µM): 0.211; relative viability ([2]; first compound 0.1265 µM): 0.233; relative viability ([2]; first compound 0.4 µM): 0.209; relative viability ([2]; first compound 1.265 µM): 0.205; relative viability ([2]; first compound 4 µM): 0.194; relative viability (Salubrinal + Bortezomib; first compound 0.08 µM): 0.747; relative viability (Salubrinal + Bortezomib; first compound 0.253 µM): 0.462; relative viability (Salubrinal + Bortezomib; first compound 0.8 µM): 1.29; relative viability (Salubrinal + Bortezomib; first compound 2.53 µM): 0.904; relative viability (Salubrinal + Bortezomib; first compound 8 µM): 0.575
